Laboratory results taken from US11401243B2, “Quinoline derived small molecule inhibitors of nicotinamide N-methyltransferase (NNMT) and uses thereof” (priority 2017, dated 2022).
Entries after “also recorded” stand apart in the source; their conditions may differ. Like-named read-outs stand apart in the source and are kept apart here.

Legend:
[1] = Parallel artificial membrane permeability assay (PAMPA); format: in vitro ADME; settings: for Papp at 4 h, 400 μM: 400 μM in PBS, room temperature, read-out: Flux; for Permeability Classification (passive transport): BCS classification
Experimental: Samples were tested in triplicates in three separate experiments.

[2] = test system: NNMT activity in 3T3-L1 pre-adipocytes and differentiated adipocytes; assay: Quantitative measurement of NNMT reaction product 1-MNA in cultured cells (LC/MS/MS); format: cell-based; settings: 10 μM, 24 h
Experimental: Differentiation of 3T3-L1 pre-adipocytes. […] Briefly, standard culture media was supplemented with scheduled addition of adipogenic agents [3-isobutyl-1methyl xanthine (IBMX), Sigma Aldrich; MO, USA), dexamethasone (Sigma Aldrich; MO, USA), insulin (Gibco Life Technologies Inc.; Grand Island, N.Y., USA)] over 10 days to promote differentiation of 3T3-L1 fibroblasts into adipocytes; a combination of 1 mM IBMX, 1 μM dexamethasone, and 10 μg/ml of insulin in media were added to fully confluent 3T3-L1 fibroblasts for three days (days 0-3) to initiate differentiation. At day 3, the media was replaced with culture media supplemented with insulin (10 μg/ml). After day 6, cells were maintained in culture media until described experiments were begun (days 8-10).
Cellular 1-MNA concentrations were determined using an ultra-sensitive high-resolution AB Sciex 6500 Q-trap mass spectrometer coupled to an Agilent 1260 ultra-high pressure liquid chromatography (LC/MS/MS) system. Using multiple reaction monitoring (MRM) positive ion mode, the 1-MNA NNMT reaction product was quantified from peak area ratios using AB Sciex Analyst and MultiQuant 2.1 software and the parent precursor and Q3 masses set to m/z 137.1 and 94.1, respectively. Fragment ions at m/z of 92.1 and 77.9 were additionally used for the detection and confirmation of 1-MNA, respectively. […]. To determine the effect of NNMT inhibitor on NNMT activity in the pre-adipocytes and differentiated adipocytes (8×10^4 cells/well seeded prior to beginning differentiation), cells were treated with 30 μM inhibitor for 24 h. Similarly, to compare the relative effects of multiple NNMT inhibitors on NNMT activity in cultured adipocytes, differentiated adipocytes in 6-well plates were treated with 10 μM test compound for 24 h. Following treatment, media was replaced with 80% (v/v) methanol (cooled to −80° C.) containing 500 nmol 6-chloronicotinamide (6-CN) as an internal standard (IS) to extract cellular metabolites. Adherent cells were scrapped, then centrifuged at 4° C. and 13000 g for 15 min, and the resulting supernatants processed using established protocols. […]. Data were subsequently normalized to the IS peak area and transformed as % control values for cross-sample comparisons. […] Choice of inhibitor concentrations and time period was chosen based on the results from the MTT studies.

human NNMT (mt-hNNMT) [3] = biological target: T1, human NNMT (mt-hNNMT) (Homo sapiens, UniProt P40261, E101A/E103A/K100A); settings: values from applicant's published SAR study; read-out: IC50 (NNMT inhibition); cited from earlier work
T1 sequence (P40261 1-261 K100A/E101A/E103A limits assumed): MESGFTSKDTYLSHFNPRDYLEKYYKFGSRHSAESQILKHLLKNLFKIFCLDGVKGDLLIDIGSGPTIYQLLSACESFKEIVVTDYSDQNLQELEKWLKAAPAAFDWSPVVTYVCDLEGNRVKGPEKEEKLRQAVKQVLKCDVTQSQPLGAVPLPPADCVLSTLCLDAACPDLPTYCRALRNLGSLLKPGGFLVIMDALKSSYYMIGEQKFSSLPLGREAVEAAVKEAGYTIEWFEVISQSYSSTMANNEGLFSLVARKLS

[4] = biological target: recombinant human DNMT1 enzyme (Homo sapiens, UniProt P26358); assay: DNMT1 activity assay (radiometric); format: biochemical
Chain of recombinant human DNMT1 enzyme (P26358 whole entry): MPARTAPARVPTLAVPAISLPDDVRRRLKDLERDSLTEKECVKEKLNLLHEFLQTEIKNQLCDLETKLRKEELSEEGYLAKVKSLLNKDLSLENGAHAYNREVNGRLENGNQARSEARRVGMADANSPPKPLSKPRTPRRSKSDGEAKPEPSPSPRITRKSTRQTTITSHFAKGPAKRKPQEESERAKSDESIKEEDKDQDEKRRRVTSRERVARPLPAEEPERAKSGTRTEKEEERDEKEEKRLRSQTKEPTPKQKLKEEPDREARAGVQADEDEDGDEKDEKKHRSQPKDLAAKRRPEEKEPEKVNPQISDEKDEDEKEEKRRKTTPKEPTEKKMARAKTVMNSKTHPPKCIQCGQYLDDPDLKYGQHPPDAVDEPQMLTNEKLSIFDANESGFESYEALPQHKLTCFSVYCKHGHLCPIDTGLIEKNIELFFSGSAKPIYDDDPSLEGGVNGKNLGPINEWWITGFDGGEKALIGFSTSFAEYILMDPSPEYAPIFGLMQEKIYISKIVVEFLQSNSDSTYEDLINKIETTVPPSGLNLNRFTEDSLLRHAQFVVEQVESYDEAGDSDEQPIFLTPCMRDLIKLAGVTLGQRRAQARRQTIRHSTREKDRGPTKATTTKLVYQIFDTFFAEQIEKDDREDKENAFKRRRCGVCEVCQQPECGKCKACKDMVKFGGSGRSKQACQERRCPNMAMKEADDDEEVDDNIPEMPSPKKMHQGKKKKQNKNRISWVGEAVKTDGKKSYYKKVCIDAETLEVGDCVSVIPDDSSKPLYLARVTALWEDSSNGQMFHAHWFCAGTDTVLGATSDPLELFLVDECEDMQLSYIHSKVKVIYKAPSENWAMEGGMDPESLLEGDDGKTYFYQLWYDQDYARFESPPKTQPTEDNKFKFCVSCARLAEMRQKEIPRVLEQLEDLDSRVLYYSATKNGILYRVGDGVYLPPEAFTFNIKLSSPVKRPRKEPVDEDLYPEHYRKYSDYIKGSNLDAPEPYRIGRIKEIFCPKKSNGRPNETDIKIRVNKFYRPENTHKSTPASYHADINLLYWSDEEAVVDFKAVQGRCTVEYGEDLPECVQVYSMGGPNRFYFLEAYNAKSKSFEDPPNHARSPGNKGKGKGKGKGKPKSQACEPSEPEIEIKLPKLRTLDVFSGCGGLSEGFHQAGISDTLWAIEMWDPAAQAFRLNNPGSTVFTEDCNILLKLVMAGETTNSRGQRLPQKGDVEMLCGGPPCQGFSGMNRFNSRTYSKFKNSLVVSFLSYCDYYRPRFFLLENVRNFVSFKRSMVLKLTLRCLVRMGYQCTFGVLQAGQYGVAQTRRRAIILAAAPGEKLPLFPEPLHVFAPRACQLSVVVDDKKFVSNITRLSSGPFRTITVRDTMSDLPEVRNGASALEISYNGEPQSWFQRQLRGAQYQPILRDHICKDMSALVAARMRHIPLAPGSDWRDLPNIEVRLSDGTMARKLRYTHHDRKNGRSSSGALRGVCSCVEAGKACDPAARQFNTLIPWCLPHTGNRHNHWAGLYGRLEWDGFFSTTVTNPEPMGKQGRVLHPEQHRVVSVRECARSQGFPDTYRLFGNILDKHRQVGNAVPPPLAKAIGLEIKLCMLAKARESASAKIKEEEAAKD

[5] = biological target: recombinant human PRMT3 enzyme (Homo sapiens, UniProt O60678); assay: PRMT3 activity assay (radiometric); format: biochemical; settings: 10 nM to 200 μM (1,8-diMQ) or 600 μM (5-amino-1MQ)
Chain of recombinant human PRMT3 enzyme (O60678 whole entry): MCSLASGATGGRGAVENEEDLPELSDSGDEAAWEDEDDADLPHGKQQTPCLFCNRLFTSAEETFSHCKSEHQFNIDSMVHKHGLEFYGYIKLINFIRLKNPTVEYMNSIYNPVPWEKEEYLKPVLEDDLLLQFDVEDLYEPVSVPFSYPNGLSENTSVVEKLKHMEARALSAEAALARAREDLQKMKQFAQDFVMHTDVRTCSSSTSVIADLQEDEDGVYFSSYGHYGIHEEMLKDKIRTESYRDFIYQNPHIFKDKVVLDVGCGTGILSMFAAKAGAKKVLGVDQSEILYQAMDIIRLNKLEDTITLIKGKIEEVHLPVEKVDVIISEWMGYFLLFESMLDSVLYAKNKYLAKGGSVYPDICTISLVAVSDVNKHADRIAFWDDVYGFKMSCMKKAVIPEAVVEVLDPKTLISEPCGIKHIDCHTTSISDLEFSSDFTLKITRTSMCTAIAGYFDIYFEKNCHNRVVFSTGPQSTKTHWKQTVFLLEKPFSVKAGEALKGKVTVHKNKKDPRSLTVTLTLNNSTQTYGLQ
Source text: Test compounds were screened in biochemical assays for activity against three structurally similar methyltransferases, including catechol-O-methyltransferase (COMT), DNA (cytosine-5)-methyltransferase 1 (DNMT1), and protein arginine methyltransferase 3 (PRMT3). Additional biochemical assays were used to test the ability of compounds to inhibit nicotinamide phosphoribosyl transferase (NAMPT) and NAD+-dependent protein deacetylase sirtuin 1 (SIRT1), two enzymes in the NAD+ biosynthesis/salvage pathway. All assays were performed by Reaction Biology Corporation (RBC; Malvern, Pa., USA) and complete assay details are noted below. For each test compound, IC50 values were calculated from dose-response curves established with 10 concentrations of a half-log dilution series. For each assay, established enzyme specific inhibitors were included as positive controls for enzyme function and assay reproducibility. IC50 values were determined by non-linear least-squares fitting of a 4-parameter dose-response curve to collected data points (Graphpad Prism 7.0; La Jolla, Calif., USA).
PRMT3 activity assay. […] The analogues, 1,8-diMQ and 5-amino-1MQ were tested at concentrations from 200 μM-10 nM and 600 μM-10 nM, respectively. Reactions were performed with 5 μM histone H3 (histone L-arginine) substrate, 1 μM radiolabeled S-adenosyl-L-[methyl-3H]methionine (SAM) co-substrate, and recombinant human PRMT3 enzyme. Activity was monitored via quantification of radiolabeled reaction product histone [methyl-3H]-L-arginine.

[6] = biological target: T2, recombinant human COMT enzyme (Homo sapiens, UniProt P21964); assay: COMT activity assay (radiometric); format: biochemical; settings: maximal tested concentration 200 μM
T2 construct: Reaction Biology Corporation (ran the assay)
T2 sequence (P21964 1-271): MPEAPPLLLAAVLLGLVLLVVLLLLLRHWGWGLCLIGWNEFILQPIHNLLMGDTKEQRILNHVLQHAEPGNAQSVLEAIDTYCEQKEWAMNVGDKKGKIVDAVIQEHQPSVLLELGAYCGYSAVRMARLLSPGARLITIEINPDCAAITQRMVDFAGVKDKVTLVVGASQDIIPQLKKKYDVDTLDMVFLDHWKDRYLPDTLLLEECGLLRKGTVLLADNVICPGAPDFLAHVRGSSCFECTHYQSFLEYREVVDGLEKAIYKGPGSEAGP

[7] = Bi-directional permeability assay with Caco-2 cells; settings: human, Caco-2, pH 7.4
Caco-2 cells = assay: as above
human NNMT (mt-hNNMT) [8] = biological target: T1, human NNMT (mt-hNNMT); assay: NNMT activity assay (HPLC-UV detection of MNA), NNMT IC50 curves; settings: NNMT Inhibition IC50, mean ± SD of duplicate or triplicate measurements; NI = no observable inhibition

Cc1cc(C)[n+](C)c2c(C)cccc12 [1,2,4,8-tetraMQ]
Papp at 4 h, 400 μM [1]: 0.698 ×10⁻⁶ cm/s | Permeability Classification (passive transport) [1]: low, but non-zero, permeability; also recorded: Low permeability | 1-MNA levels in differentiated adipocytes relative to control [2]: did not significantly decrease | IC50 (human NNMT (mt-hNNMT) [3]): 109 µM

Cc1cccc2ccc[n+](C)c12 [1q]
Papp at 4 h, 400 μM [1]: 0.864 ×10⁻⁶ cm/s | Permeability Classification (passive transport) ([1]; listed as 1,8-diMQ): low, but non-zero, permeability; also recorded: Low permeability | inhibition of DNMT1 (in words) ([4]; 10 nM to 200 μM (1,8-diMQ) or 600 μM (5-amino-1MQ)): did not inhibit | IC50 ([4]; read-out: IC50, DNA (cytosine-5)-methyltransferase 1, NI: no inhibition): > 200 µM | inhibition of PRMT3 (in words) [5]: did not inhibit | inhibition at 200 µM [6]: 20% | Papp B→A at 2 h, 10 μM [7]: 1.78 ×10⁻⁶ cm/s | Mean A→B Papp (Caco-2 cells; Caco-2, 10 μM, 2 h, pH 7.4, BLQ = no peak detected in receiver side): BLQ | Classification (active transport / efflux) (Caco-2 cells; Caco-2, listed as 1,8-diMQ): very low bi-directional transport; also recorded: Low permeability | IC50 (human NNMT (mt-hNNMT) [8]): 1.8 ± 0.5 µM
